Source: patent publication US8334238B2, “Multiparameter FACS assays to detect alterations in cellular parameters and to screen small molecule libraries” (Rigel, Inc., priority 1998, dated 2012)

Legend:
RBL-2H3 cells [1] = experiment: Exocytic light scatter changes on the flow cytometer; assay type: cell-based; settings: 0.5 ug/ml, 0 and 10 minutes
Description: (§1) Experiments were carried out in modified tyrodes buffer (MD which consisted of NaCl (137 mM), KCl (2.7 mM), CaCl2 (1.8 mM), MgCl2 (1 mM), Glucose (5.6 mM), Hepes (20 mM, pH 7.4), and bovine serum albumin (0.1%). MC-9 cells were spun at 400×g and the media was aspirated. The cells were then washed with MT, respun/aspirated and taken up in MT at a density of 5×10^6 cells/ml. Cells were then treated with either DMSO or ionophore for 30 minutes (or the time was varied if a timecourse). The cells were then pelleted with the supernatant collected for enzymatic analysis; in some cases, the cells then processed for flow cytometry. All stimulations were carried out at 37° C. Stimulations of RBL-2H3 cells were carried out by washing the adherent cells one time in MT and then adding warmed MT (1 ml/10^6 cells) containing the stimulus. The cells were incubated at 37° C. for 30 minutes and the supernatant was harvested for further analysis. In some of the examples, (Examples 4-6), the plate bound cells were stained for annexin and then removed from the flask using No-Zyme (Collaborative Research, Inc.) for further processing for flow cytometry. For stimulation of RBL-2H3 cells with antigen crosslinking the cells were incubated overnight with IgE anti-DNP (Sigma Chemical Co.) in complete media at a concentration of 50 ng/ml. The following day they were washed one time in MT and stimulated as described above with the exception that bovine serum albumin coupled to DNP was used as the stimulus at 100 ng/ml.
(§2) Cells processed for stimulation and staining were taken up in MT on ice and filtered through a 100 μm filter prior to cytometry. Cells were analyzed using a FACSCAN (Becton Dickinson Inc., laser line […]) or a Mo-Flo (Cytomation, Inc., laser lines 350 nM broadband (UV), 488 nm, and 647 nm) Cytometer. Cells were sorted, if desired using the Mo-Flo.
(§3) The cells were prepared as described in Example 2, and light scatter properties were determined.

MC-9 cells [2] = experiment: as above; assay type: cell-based
Description: as §1, §2, §3

MC-9 cells [3] = experiment: In situ enzymology (ELF-97 glucuronide, cell surface glucuronidase) by FACS; assay type: cell-based; settings: 0.5 μg/ml vs DMSO
Description: MC-9 cells were stimulated for exocytosis as described above and then incubated in enyme substrate buffer (BSA free MT, pH 4.3-7.4 range) containing the substrate ELF-97 Glucuronide (250 NM) for 15 minutes at 37° C. The cells were washed one time in MT and then viewed in the microscope or on the flowcytometer. Further methodologies are described in the preceding examples.

MC-9 cells [4] = experiment: Annexin-V staining exocytosis assay by FACS; assay type: cell-based
Description: as §1
Cells post exocytic stimulus were stained with annexin-PITC at a dilution of 1/100 in MT for 10 minutes at room temperature. The cells were then washed one time in MT, taken up in MT and viewed in the flow cytometer or microscope. For indirect labeling, annexin-biotin was added to the MT during the stimulation procedure at a dilution of 1/200. The cells were then pelleted in ice cold MT, spun, aspirated, and taken up in ice cold MT with streptavidin-APC at a dilution of 1/200 and kept on ice for 15 minutes. […]

MC-9 cells [5] = experiment: Lysotracker green release from granules by FACS; assay type: cell-based
Description: Lysotracker dyes (blue, green, and red) were loaded into cells by diluting them to a final concentration of 1 μM in complete media and incubating the cells for 60 minutes at 37° C. in their presence. After loading, the cells were washed two times in MT and then were ready for further analysis or stimulation. Further methodologies are described in the preceding examples.

MC-9 cells [6] = experiment: Population based exocytic enzyme activity assay on cell supernatant; settings: 2 μm, 30 minutes, vs DMSO
Description: (§4) Experiments were carried out in modified tyrodes buffer (MD which consisted of NaCl (137 mM), KCl (2.7 mM), CaCl2 (1.8 mM), MgCl2 (1 mM), Glucose (5.6 mM), Hepes (20 mM, pH 7.4), and bovine serum albumin (0.1%). MC-9 cells were spun at 400×g and the media was aspirated. The cells were then washed with MT, respun/aspirated and taken up in MT at a density of 5×10^6 cells/ml. Cells were then treated with either DMSO or ionophore for 30 minutes (or the time was varied if a timecourse). The cells were then pelleted with the supernatant collected for enzymatic analysis; in some cases, the cells then processed for flow cytometry. All stimulations were carried out at 37° C. Stimulations of RBL-2H3 cells were carried out by washing the adherent cells one time in MT and then adding warmed MT (1 ml/10^6 cells) containing the stimulus. The cells were incubated at 37° C. for 30 minutes and the supernatant was harvested for further analysis. […]
(§5) Enzyme assays were carried out on cell supernatants and pellets following exocytic stimulation. […] The plate was read on a fluorescence plate reader (Wallac, Inc.) using excitation 380 nm/emission 440 nm filters every 3 minutes for five times to obtain an enzymatic rate; analyses were carried out in triplicate.

MC-9 cells [7] = experiment: Propidium iodide staining (plasma membrane integrity) by FACS; assay type: cell-based; settings: 2 μm vs DMSO
Description: as §1, with “The following day they were washed one time in MT and stimulated as described above with the exception that bovine serum albumin coupled to DNP was used as the stimulus at 100 ng/ml.” left out

MC-9 cells [8] = experiment: Styryl dye (FM 1-43 / FM 4-64) uptake exocytosis assay by FACS; assay type: cell-based; settings: 2 μM vs DMSO
Description: as §4, with “analysis. In some of the examples, (Examples 4-6), the plate bound cells were stained for annexin and then removed from the flask using No-Zyme (Collaborative Research, Inc.) for further processing for flow cytometry.” for “analysis.”
The cells were prepared as described above. […] The cells were then ready for analysis in the flow cytometer (see Example 2).

RBL-2H3 cells [9] = experiment: Population based exocytic enzyme activity assay on cell supernatant, antigen crosslinking; settings: RBL-2H3 sensitized 16 hours with varying IgE anti-DNP, stimulated with increasing BSA-DNP
Description: as §4, §5

RBL-2H3 cells [10] = experiment: Annexin-V-FITC staining of exocytic granules, antigen crosslinking, microscopy; assay type: cell-based; settings: IgE-sensitized RBL-2H3 cells, 100 ng/ml vs MT buffer only
Description: as §4, with “analysis. In some of the examples, (Examples 4-6), the plate bound cells were stained for annexin and then removed from the flask using No-Zyme (Collaborative Research, Inc.) for further processing for flow cytometry.” for “analysis.”
Cells post stimulation or staining were mounted onto glass slides and coverslipped; these were directly visualized by brighffield and fluorescence microscopy on an inverted microscope (TE300, Nikon) using standard BFP, FITC, or TRITC filter sets. […]

[11] = MC-9 cells, 0, 1, 2, 3 μM, four-parameter analysis

Compound: CNc1ccc2oc(C[C@H]3O[C@@]4(CC[C@H]3C)O[C@H]([C@H](C)C(=O)c3ccc[nH]3)[C@H](C)C[C@H]4C)nc2c1C(=O)O [A23187]
- light scatter changes (side scatter vs. forward scatter) (RBL-2H3 cells [1]): Time dependent scatter changes are evident
- light scatter changes (side scatter vs. forward scatter) (MC-9 cells [2]; MC-9 cells, 0.5 ug/ml, 0, 5 and 30 minutes): Time dependent scatter changes are evident
- ELF-97 signal (cell surface enzymatic precipitate, in situ glucuronidase activity) (MC-9 cells [3]): significant increase in signal

Compound: C[C@H](CCC(=O)O)C[C@H](C)C[C@H](C)C(=O)/C=C(\O)[C@H](C)C[C@H](C)C/C=C/[C@@H](C)[C@@H](O)[C@@H](C)[C@@H](O)C[C@@H]1CC[C@@](C)([C@H]2CC[C@@](C)([C@@H](C)O)O2)O1 [ionomycin]
- annexin-V-APC signal (MC-9 cells [4]; [11]): becomes greater
- annexin-V-APC signal (MC-9 cells [4]; MC-9 cells, 2 μM vs DMSO, four-parameter analysis with FM 1-43, data not shown): stimulation dependent increases in both signals
- annexin-V-FITC binding (MC-9 cells [4]; MC-9 cells, 2 μm vs DMSO): significant increase
- Lysotracker green fluorescence intensity, channel 1 (MC-9 cells [5]; MC-9 cells loaded 1 hour, 2 μM vs DMSO): significant loss of signal
- Lysotracker green signal (MC-9 cells [5]; [11]): decreases
- glucuronidase or hexosaminidase activity in the supernatant (MC-9 cells [6]): Stimulated release of granule enzymatic activity is evident
- PI staining (MC-9 cells [7]): no significant increase
- forward scatter (MC-9 cells [2]; [11]): increases
- side scatter (MC-9 cells [2]; [11]): decreases
- forward and side scatter (MC-9 cells [2]; MC-9 cells, 2 μM vs DMSO, 30 minute timepoint, data not shown): stimulation dependent changes in both parameters
- styryl dye fluorescence intensity (FM 4-64 and FM 1-43) (MC-9 cells [8]; channels 1 and 3): clear stimulation dependent increase
- FM 1-43 signal (MC-9 cells [8]; four-parameter analysis, data not shown): stimulation dependent increases in both signals

Compound: BSA-DNP: bovine serum albumin coupled to DNP, antigen used as the stimulus
- supernatant hexosaminidase activity (RBL-2H3 cells [9]): dose response
- annexin-V-FITC staining of cell surface granules (RBL-2H3 cells [10]): Numerous cell surface granules are stained
